Experimental data: ChEMBL document CHEMBL4507286 (2021)
pIC50, pKi: −log10 of the molar value. Calls of active or inactive are those of the source. The rule behind the calls is not given here.

Tests used:
[1] = target: 5-hydroxytryptamine receptor 2B (Homo sapiens, UniProt P41595); assay: GPCRScan assay: inhibition of 5-HT2B; set-up: radioligand conc. used [nm] 1.0 – 2.0, parental cells stable HEK
[2] = tested on: Receptor-type tyrosine-protein kinase FLT3 (Homo sapiens), P36888 [UNDEFINED MUTATION]
[3] = target: Beta-adrenergic receptor kinase 1 (Homo sapiens) (UniProt P25098)
[4] = target: G protein-coupled receptor kinase 4 (Homo sapiens) (UniProt P32298)
[5] = target: Mast/stem cell growth factor receptor Kit (Homo sapiens) (UniProt P10721)
[6] = tested on: Mast/stem cell growth factor receptor Kit (Homo sapiens), P10721 [V559D,T670I]
[7] = target: Serine/threonine-protein kinase 38 (Homo sapiens) (UniProt Q15208)
[8] = target: Serine/threonine-protein kinase Nek9 (Homo sapiens) (UniProt Q8TD19)
[9] = target: Non-receptor tyrosine-protein kinase TNK1 (Homo sapiens) (UniProt Q13470)
[10] = target: 5-hydroxytryptamine receptor 1E (Homo sapiens) (UniProt P28566); conditions: Compound concentration 10.0 uM
[11] = target: D(2) dopamine receptor (Homo sapiens) (UniProt P14416); conditions: Compound concentration 10.0 uM
[12] = target: Delta-type opioid receptor (Homo sapiens) (UniProt P41143); conditions: Compound concentration 10.0 uM
[13] = target: GABA-A receptor; anion channel (Rattus norvegicus) (UniProt O09028+P15431+P18506+P18508+P19969+P20236+P23574+P23576+P28471+P28473+P30191+P62813+P63079+P63138+Q91ZM7+Q9ES14); conditions: Compound concentration 10.0 uM
[14] = target: Alpha-1D adrenergic receptor (Homo sapiens) (UniProt P25100); conditions: Compound concentration 10.0 uM
[15] = target: Sigma intracellular receptor 2 (Homo sapiens) (UniProt Q5BJF2); conditions: Compound concentration 10.0 uM
[16] = target: Sigma non-opioid intracellular receptor 1 (Homo sapiens) (UniProt Q99720); conditions: Compound concentration 10.0 uM
[17] = target: Cyclin-dependent kinase 7 (Homo sapiens, UniProt P50613); assay: Inhibition of CDK7 at compound concentration of 10.0 uM using the ScanMax (DiscoverX)
[18] = target: Dual specificity protein kinase CLK4 (Homo sapiens, UniProt Q9HAZ1); assay: Inhibition of CLK4 at compound concentration of 10.0 uM using the ScanMax (DiscoverX)
[19] = target: G protein-coupled receptor kinase 3 (Homo sapiens, UniProt P35626); assay: Inhibition of GRK3 at compound concentration of 10.0 uM using the ScanMax (DiscoverX)
[20] = target: Serine/threonine-protein kinase haspin (Homo sapiens, UniProt Q8TF76); assay: Inhibition of GSG2 at compound concentration of 10.0 uM using the ScanMax (DiscoverX)
[21] = target: Serine/threonine-protein kinase ULK1 (Homo sapiens, UniProt O75385); assay: Inhibition of ULK1 at compound concentration of 10.0 uM using the ScanMax (DiscoverX)
[22] = target: T1, Mitogen-activated protein kinase 1 (Homo sapiens, UniProt P28482); assay: Invitrogen kinase screen (MAPK1)
[23] = target: T1, Mitogen-activated protein kinase 1; assay: Cell Assay: Inhibition of RSK phosphorylation (pRSK A375SM); format: cell-based, A375-SM
[24] = target: T1, Mitogen-activated protein kinase 1; assay: Cell Assay: Inhibition of RSK phosphorylation (pRSK with 40% mouse serum )
[25] = target: T1, Mitogen-activated protein kinase 1; assay: Cell Assay: Inhibition of RSK phosphorylation (pRSK with 40% human serum)
[26] = NanoBRET (MAPK1, SGC Frankfurt); conditions: Homo sapiens
[27] = NanoBRET (MAPK3, SGC Frankfurt); conditions: Homo sapiens
[28] = target: Glycogen synthase kinase-3 alpha (Homo sapiens, UniProt P49840); assay: Invitrogen kinase screen (GSK3A)
[29] = target: Serine/threonine-protein kinase Sgk1 (Homo sapiens, UniProt O00141); assay: Invitrogen kinase screen (SGK)
[30] = target: Glycogen synthase kinase-3 beta (Homo sapiens, UniProt P49841); assay: Invitrogen kinase screen (GSK3B)
[31] = target: Serine/threonine-protein kinase TBK1 (Homo sapiens, UniProt Q9UHD2); assay: Invitrogen kinase screen (TBK1)
[32] = target: Cyclin-dependent kinase 2 (Homo sapiens, UniProt P24941); assay: Invitrogen kinase screen (CDK2)
[33] = target: Serine/threonine-protein kinase 26 (Homo sapiens, UniProt Q9P289); assay: Invitrogen kinase screen (STK26)
[34] = target: Dual specificity protein kinase CLK2 (Homo sapiens, UniProt P49760); assay: Invitrogen kinase screen (CLK2)
[35] = target: cGMP-dependent protein kinase 2 (Homo sapiens, UniProt Q13237); assay: Invitrogen kinase screen (PRKG2)
[36] = target: Cyclin-dependent kinase 5 (Homo sapiens, UniProt Q00535); assay: Invitrogen kinase screen (CDK5)
[37] = target: Serine/threonine-protein kinase MARK2 (Homo sapiens, UniProt Q7KZI7); assay: Invitrogen kinase screen (MARK2)
[38] = target: T1, Mitogen-activated protein kinase 1
[39] = target: 5-hydroxytryptamine receptor 1B (Homo sapiens) (UniProt P28222); conditions: Compound concentration 10.0 uM
[40] = target: 5-hydroxytryptamine receptor 6 (Homo sapiens) (UniProt P50406); conditions: Compound concentration 10.0 uM
[41] = target: Beta-2 adrenergic receptor (Homo sapiens) (UniProt P07550); conditions: Compound concentration 10.0 uM
[42] = target: Muscarinic acetylcholine receptor M1 (Homo sapiens) (UniProt P11229); conditions: Compound concentration 10.0 uM
[43] = Compound concentration 1000.0 nM
[44] = Compound concentration 100.0 nM

T1 sequence (P28482 whole entry): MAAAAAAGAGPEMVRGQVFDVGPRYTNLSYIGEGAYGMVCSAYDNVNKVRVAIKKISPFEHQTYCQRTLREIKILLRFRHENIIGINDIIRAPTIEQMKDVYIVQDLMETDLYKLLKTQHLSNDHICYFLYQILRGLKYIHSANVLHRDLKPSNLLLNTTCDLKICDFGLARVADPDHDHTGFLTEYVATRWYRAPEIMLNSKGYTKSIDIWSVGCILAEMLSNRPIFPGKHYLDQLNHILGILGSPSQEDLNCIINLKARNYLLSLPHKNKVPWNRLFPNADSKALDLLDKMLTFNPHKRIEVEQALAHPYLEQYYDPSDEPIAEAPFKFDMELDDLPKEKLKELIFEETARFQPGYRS
Serine/threonine-protein kinase 38 (Homo sapiens), sequence (Q15208 2-465 limits assumed): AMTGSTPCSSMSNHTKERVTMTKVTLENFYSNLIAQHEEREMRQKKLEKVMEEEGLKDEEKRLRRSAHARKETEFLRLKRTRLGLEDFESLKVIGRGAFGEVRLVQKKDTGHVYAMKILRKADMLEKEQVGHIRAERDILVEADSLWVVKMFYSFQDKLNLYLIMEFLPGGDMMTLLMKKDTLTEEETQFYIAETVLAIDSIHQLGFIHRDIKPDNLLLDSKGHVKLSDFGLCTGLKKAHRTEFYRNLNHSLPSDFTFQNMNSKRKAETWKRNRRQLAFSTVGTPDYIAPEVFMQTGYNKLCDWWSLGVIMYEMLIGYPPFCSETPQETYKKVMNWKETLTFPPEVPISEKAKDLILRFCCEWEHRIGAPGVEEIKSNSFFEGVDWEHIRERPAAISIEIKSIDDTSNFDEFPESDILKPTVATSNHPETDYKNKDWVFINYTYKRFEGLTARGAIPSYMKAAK
Beta-adrenergic receptor kinase 1 (Homo sapiens), sequence (P25098 whole entry): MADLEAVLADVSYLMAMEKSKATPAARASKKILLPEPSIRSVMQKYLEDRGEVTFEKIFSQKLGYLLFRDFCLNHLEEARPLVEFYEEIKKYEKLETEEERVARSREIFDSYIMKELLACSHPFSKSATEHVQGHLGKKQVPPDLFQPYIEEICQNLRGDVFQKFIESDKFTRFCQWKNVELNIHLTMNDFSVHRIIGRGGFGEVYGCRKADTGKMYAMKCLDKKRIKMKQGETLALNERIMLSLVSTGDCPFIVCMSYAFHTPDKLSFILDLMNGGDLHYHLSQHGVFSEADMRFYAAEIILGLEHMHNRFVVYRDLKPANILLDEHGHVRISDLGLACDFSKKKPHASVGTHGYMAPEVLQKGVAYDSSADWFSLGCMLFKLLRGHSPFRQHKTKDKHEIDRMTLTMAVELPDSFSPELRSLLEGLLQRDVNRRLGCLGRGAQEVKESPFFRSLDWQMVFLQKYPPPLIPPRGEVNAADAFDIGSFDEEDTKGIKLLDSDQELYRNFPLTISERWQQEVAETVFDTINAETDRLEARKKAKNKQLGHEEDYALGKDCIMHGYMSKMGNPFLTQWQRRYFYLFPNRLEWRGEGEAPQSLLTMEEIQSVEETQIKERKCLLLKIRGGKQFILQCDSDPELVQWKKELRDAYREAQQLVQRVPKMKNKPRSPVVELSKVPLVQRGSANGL
Serine/threonine-protein kinase Nek9 (Homo sapiens), sequence (Q8TD19 whole entry): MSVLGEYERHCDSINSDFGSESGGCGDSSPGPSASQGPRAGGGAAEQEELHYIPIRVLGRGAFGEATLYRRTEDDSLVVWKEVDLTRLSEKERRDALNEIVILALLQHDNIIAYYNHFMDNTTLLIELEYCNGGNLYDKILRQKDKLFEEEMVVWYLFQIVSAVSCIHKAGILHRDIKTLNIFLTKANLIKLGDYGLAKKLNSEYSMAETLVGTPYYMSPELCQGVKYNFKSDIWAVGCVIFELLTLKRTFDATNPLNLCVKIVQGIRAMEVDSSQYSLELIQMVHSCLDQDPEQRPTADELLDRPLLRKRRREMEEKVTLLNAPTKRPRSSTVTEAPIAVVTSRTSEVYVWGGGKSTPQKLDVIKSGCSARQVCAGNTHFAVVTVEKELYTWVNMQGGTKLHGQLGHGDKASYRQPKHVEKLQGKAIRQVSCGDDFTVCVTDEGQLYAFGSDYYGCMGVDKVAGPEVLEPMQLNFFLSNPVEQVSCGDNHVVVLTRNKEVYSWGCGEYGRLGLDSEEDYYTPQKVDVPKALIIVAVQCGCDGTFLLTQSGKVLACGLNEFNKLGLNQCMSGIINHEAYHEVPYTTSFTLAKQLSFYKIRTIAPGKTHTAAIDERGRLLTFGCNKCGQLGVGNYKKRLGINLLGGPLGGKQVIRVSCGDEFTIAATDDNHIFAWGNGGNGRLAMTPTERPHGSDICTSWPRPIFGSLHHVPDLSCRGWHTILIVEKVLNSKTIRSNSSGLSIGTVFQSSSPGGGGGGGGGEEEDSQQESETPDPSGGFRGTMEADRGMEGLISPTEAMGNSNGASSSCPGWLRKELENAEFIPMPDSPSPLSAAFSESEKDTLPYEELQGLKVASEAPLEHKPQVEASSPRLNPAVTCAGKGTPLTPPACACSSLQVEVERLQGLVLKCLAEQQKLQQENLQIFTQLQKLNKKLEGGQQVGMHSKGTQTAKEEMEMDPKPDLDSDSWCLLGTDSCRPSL
Mast/stem cell growth factor receptor Kit (Homo sapiens), sequence (P10721 whole entry): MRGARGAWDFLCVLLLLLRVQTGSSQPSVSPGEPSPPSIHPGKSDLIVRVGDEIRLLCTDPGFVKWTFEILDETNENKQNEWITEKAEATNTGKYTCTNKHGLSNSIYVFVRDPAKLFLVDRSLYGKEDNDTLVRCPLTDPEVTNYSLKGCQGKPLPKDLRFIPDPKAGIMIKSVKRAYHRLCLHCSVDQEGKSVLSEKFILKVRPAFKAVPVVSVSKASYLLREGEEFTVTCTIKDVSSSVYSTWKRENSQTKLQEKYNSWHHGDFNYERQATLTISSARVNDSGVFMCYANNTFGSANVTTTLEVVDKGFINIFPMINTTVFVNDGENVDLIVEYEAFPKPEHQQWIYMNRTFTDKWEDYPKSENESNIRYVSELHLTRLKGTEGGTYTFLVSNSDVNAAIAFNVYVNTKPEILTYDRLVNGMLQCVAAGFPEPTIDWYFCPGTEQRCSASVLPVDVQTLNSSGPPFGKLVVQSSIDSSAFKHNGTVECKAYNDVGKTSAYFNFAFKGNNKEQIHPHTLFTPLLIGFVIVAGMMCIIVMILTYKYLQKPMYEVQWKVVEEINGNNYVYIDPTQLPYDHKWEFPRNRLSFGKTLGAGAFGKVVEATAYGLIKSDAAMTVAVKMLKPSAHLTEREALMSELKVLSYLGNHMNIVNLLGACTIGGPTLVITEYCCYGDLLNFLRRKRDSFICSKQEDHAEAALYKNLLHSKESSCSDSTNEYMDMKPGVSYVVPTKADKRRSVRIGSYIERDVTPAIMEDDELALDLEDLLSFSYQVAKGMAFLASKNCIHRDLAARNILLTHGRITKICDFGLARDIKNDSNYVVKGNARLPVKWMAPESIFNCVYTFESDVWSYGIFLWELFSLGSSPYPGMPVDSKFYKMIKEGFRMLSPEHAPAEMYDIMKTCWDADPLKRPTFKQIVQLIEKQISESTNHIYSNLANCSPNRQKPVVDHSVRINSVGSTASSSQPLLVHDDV
Mast/stem cell growth factor receptor Kit (Homo sapiens), P10721 [V559D,T670I], sequence (P10721 whole entry V559D/T670I): as the sequence (P10721 whole entry) above, with V559D, T670I counted along it
G protein-coupled receptor kinase 4 (Homo sapiens), sequence (P32298 whole entry, looked up): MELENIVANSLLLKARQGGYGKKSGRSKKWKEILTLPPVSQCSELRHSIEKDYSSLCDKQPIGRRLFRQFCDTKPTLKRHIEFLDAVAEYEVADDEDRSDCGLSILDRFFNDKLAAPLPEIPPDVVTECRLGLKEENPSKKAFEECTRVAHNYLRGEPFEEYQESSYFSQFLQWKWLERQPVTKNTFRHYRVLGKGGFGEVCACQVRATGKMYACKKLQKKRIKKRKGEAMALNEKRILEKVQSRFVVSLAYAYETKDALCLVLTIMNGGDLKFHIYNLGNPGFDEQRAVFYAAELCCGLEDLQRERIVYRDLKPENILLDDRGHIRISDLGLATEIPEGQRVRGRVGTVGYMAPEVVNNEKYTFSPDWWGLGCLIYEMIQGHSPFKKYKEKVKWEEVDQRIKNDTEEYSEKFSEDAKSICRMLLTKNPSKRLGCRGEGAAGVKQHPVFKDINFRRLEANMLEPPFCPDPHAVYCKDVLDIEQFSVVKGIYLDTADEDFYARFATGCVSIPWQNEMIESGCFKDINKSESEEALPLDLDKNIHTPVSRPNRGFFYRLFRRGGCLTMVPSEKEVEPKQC
Non-receptor tyrosine-protein kinase TNK1 (Homo sapiens), sequence (Q13470 whole entry): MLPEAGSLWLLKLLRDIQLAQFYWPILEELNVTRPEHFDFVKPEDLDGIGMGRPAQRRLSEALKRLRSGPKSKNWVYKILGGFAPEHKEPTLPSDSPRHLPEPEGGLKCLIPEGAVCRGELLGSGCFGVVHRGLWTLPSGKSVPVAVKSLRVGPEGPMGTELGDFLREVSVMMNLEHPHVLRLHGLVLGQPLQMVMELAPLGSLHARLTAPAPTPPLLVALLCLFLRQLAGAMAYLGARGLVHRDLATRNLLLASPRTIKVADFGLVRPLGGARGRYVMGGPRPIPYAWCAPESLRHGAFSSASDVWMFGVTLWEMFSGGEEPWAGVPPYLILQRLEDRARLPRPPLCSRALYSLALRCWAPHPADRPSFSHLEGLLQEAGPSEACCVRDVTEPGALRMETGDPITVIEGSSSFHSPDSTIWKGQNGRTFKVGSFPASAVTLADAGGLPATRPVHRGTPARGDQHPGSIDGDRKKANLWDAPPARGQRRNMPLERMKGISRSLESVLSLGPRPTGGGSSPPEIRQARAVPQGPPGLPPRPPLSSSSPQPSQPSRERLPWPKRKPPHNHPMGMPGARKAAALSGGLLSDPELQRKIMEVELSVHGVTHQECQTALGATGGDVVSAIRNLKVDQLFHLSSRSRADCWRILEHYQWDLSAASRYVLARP
Cyclin-dependent kinase 5, sequence (Q00535 whole entry): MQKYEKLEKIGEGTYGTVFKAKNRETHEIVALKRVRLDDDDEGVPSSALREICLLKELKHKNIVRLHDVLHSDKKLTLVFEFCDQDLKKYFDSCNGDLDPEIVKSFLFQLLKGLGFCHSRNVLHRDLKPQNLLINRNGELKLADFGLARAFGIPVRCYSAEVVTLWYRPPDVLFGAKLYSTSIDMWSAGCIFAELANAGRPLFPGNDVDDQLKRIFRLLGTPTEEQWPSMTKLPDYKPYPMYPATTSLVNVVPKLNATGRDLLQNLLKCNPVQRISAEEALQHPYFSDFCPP

C[C@H](NC(=O)Nc1cc2[nH]ncc2c(CO)n1)c1ccccn1 [ERKi-NC]
pKi [1]: 6.27 | residual activity [2, 43]: 73.5% | residual activity [3, 43]: 79.3% | residual activity [4, 43]: 85.2% | residual activity [5, 43]: 96.9% | residual activity [6, 43]: 85.5% | residual activity [7, 43]: 81.4% | residual activity [8, 43]: 100% | residual activity [9, 43]: 87.8% | inhibition [10]: -8.44% | inhibition [11]: 17.7% | inhibition [12]: 2.71% | inhibition [13]: 25.5% | inhibition [14]: -7.9% | inhibition [15]: 20.8% | inhibition [16]: 12.8%

C[C@@H](NC(=O)Nc1cc2[nH]ncc2c(CO)n1)c1ccccc1 [ERKi]
Kd [17]: 230 nM (not active) | Kd [18]: 230 nM (not active) | Kd [19]: 140 nM (not active) | Kd [20]: 130 nM (not active) | Kd [21]: 140 nM (not active) | IC50 [22]: 4 nM (active) | IC50 [23]: 280 nM (active) | IC50 [24]: 788 nM (active) | IC50 [25]: 225 nM (active) | EC50 [26]: 95 nM (active) | IC50 [26]: 850 nM (active) | EC50 [27]: 32 nM (active) | pIC50 [27]: 5.17 | IC50 [28]: 210 nM (not active) | IC50 [29]: 270 nM (not active) | IC50 [30]: 540 nM (not active) | IC50 [31]: 770 nM (not active) | IC50 [32]: 790 nM (not active) | IC50 [33]: 880 nM (not active) | IC50 [34]: 940 nM (not active) | IC50 [35]: 950 nM (not active) | IC50 [36]: 1200 nM (not active) | IC50 [37]: 1400 nM (not active) | Kd [38]: 4.8 nM (active) | residual activity [2, 44]: 100% | residual activity [3, 44]: 79.5% | residual activity [4, 44]: 100% | residual activity [5, 44]: 92.5% | residual activity [6, 44]: 83.7% | residual activity [7, 44]: 75.2% | residual activity [8, 44]: 77.5% | residual activity [9, 44]: 98.1% | inhibition [39]: 4.23% | inhibition [40]: 8.67% | inhibition [41]: 1.36% | inhibition [42]: -1.16%
